Source: PubChem BioAssay (NCI)
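Values below derive from 48-hour exposures of cells grown in 96-well plates, with endpoints linearly interpolated between the two concentrations bracketing the appropriate inhibition level. TGI is the concentration that stops growth completely.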

Assays:
Experiment in all cases: growth of human tumour cells (NCI), 48 h
HCC-2998 colon = system: HCC-2998 colon
SK-MEL-5 melanoma = system: SK-MEL-5 melanoma
DLD-1 colon = system: DLD-1 colon
CAKI-1 renal = system: CAKI-1 renal
CCRF-CEM leukemia = system: CCRF-CEM leukemia
SNB-75 CNS = system: SNB-75 CNS
M19-MEL melanoma = system: M19-MEL melanoma
SR leukemia = system: SR leukemia
HCT-15 colon = system: HCT-15 colon
NCI-H460 lung = system: NCI-H460 lung
HL-60(TB) leukemia = system: HL-60(TB) leukemia
MOLT-4 leukemia = system: MOLT-4 leukemia
SF-539 CNS = system: SF-539 CNS
MALME-3M melanoma = system: MALME-3M melanoma
SW-620 colon = system: SW-620 colon
ACHN renal = system: ACHN renal
M14 melanoma = system: M14 melanoma
DMS 273 small cell lung = system: DMS 273 small cell lung
SF-268 CNS = system: SF-268 CNS
DMS 114 small cell lung = system: DMS 114 small cell lung
SK-OV-3 ovarian = system: SK-OV-3 ovarian
COLO 205 colon = system: COLO 205 colon
A498 renal = system: A498 renal
UACC-257 melanoma = system: UACC-257 melanoma
RXF 393 renal = system: RXF 393 renal
IGROV1 ovarian = system: IGROV1 ovarian
786-0 renal = system: 786-0 renal
U251 CNS = system: U251 CNS
SK-MEL-28 melanoma = system: SK-MEL-28 melanoma
OVCAR-4 ovarian = system: OVCAR-4 ovarian
SNB-19 CNS = system: SNB-19 CNS
KM12 colon = system: KM12 colon
SNB-78 CNS = system: SNB-78 CNS
OVCAR-8 ovarian = system: OVCAR-8 ovarian
HCT-116 colon = system: HCT-116 colon
KM20L2 colon = system: KM20L2 colon
HOP-62 NSCLC = system: HOP-62 NSCLC
UACC-62 melanoma = system: UACC-62 melanoma
A549 NSCLC = system: A549 NSCLC
LXFL 529 NSCLC = system: LXFL 529 NSCLC
NCI-H522 lung = system: NCI-H522 lung
HOP-18 NSCLC = system: HOP-18 NSCLC
OVCAR-3 ovarian = system: OVCAR-3 ovarian
SK-MEL-2 melanoma = system: SK-MEL-2 melanoma
RPMI-8226 leukemia = system: RPMI-8226 leukemia
TK-10 renal = system: TK-10 renal
K-562 leukemia = system: K-562 leukemia
NCI-H226 lung = system: NCI-H226 lung
SN12C renal = system: SN12C renal
UO-31 renal = system: UO-31 renal
OVCAR-5 ovarian = system: OVCAR-5 ovarian
NCI-H23 lung = system: NCI-H23 lung
HT29 colon = system: HT29 colon
HOP-92 NSCLC = system: HOP-92 NSCLC
SF-295 CNS = system: SF-295 CNS
LOX IMVI melanoma = system: LOX IMVI melanoma

Measured: TGI

C=CCC12CC(=O)CCC1CC(=O)C2 (stereo unspecified)
> 100 µM: HCC-2998 colon | SK-MEL-5 melanoma | DLD-1 colon | CAKI-1 renal | CCRF-CEM leukemia | SNB-75 CNS | M19-MEL melanoma | SR leukemia | HCT-15 colon | NCI-H460 lung | HL-60(TB) leukemia | MOLT-4 leukemia | SF-539 CNS | MALME-3M melanoma | SW-620 colon | ACHN renal | M14 melanoma | DMS 273 small cell lung | SF-268 CNS | DMS 114 small cell lung | SK-OV-3 ovarian | COLO 205 colon | A498 renal | UACC-257 melanoma | RXF 393 renal | IGROV1 ovarian | 786-0 renal | U251 CNS | SK-MEL-28 melanoma | OVCAR-4 ovarian | SNB-19 CNS | KM12 colon | SNB-78 CNS | OVCAR-8 ovarian | HCT-116 colon | KM20L2 colon | HOP-62 NSCLC | UACC-62 melanoma | A549 NSCLC | LXFL 529 NSCLC | NCI-H522 lung | HOP-18 NSCLC | OVCAR-3 ovarian | SK-MEL-2 melanoma | RPMI-8226 leukemia | TK-10 renal | K-562 leukemia | NCI-H226 lung | SN12C renal | UO-31 renal

NC(N)=C1CN(C2CCCCC2)C(=O)NC1=O
> 100 µM: HCC-2998 colon | SK-MEL-5 melanoma | DLD-1 colon | CAKI-1 renal | CCRF-CEM leukemia | SNB-75 CNS | M19-MEL melanoma | OVCAR-5 ovarian | SR leukemia | HCT-15 colon | NCI-H460 lung | HL-60(TB) leukemia | MOLT-4 leukemia | SF-539 CNS | NCI-H23 lung | MALME-3M melanoma | SW-620 colon | ACHN renal | M14 melanoma | DMS 273 small cell lung | SF-268 CNS | DMS 114 small cell lung | SK-OV-3 ovarian | COLO 205 colon | A498 renal | UACC-257 melanoma | RXF 393 renal | IGROV1 ovarian | 786-0 renal | U251 CNS | SK-MEL-28 melanoma | OVCAR-4 ovarian | HT29 colon | SNB-19 CNS | KM12 colon | SNB-78 CNS | OVCAR-8 ovarian | HCT-116 colon | KM20L2 colon | HOP-62 NSCLC | HOP-92 NSCLC | UACC-62 melanoma | A549 NSCLC | LXFL 529 NSCLC | NCI-H522 lung | HOP-18 NSCLC | OVCAR-3 ovarian | SK-MEL-2 melanoma | RPMI-8226 leukemia | TK-10 renal | K-562 leukemia | SF-295 CNS | NCI-H226 lung | SN12C renal | LOX IMVI melanoma | UO-31 renal

CCCNC(=O)C(C)(Cl)C(=O)c1ccccc1O (stereo unspecified)
> 100 µM: HCC-2998 colon | SK-MEL-5 melanoma | DLD-1 colon | CAKI-1 renal | CCRF-CEM leukemia | SNB-75 CNS | M19-MEL melanoma | SR leukemia | HCT-15 colon | NCI-H460 lung | HL-60(TB) leukemia | MOLT-4 leukemia | SF-539 CNS | MALME-3M melanoma | SW-620 colon | ACHN renal | M14 melanoma | DMS 273 small cell lung | SF-268 CNS | DMS 114 small cell lung | SK-OV-3 ovarian | COLO 205 colon | A498 renal | UACC-257 melanoma | RXF 393 renal | IGROV1 ovarian | 786-0 renal | U251 CNS | SK-MEL-28 melanoma | OVCAR-4 ovarian | SNB-19 CNS | KM12 colon | SNB-78 CNS | OVCAR-8 ovarian | HCT-116 colon | KM20L2 colon | HOP-62 NSCLC | UACC-62 melanoma | A549 NSCLC | LXFL 529 NSCLC | NCI-H522 lung | HOP-18 NSCLC | OVCAR-3 ovarian | SK-MEL-2 melanoma | RPMI-8226 leukemia | TK-10 renal | K-562 leukemia | NCI-H226 lung | SN12C renal | UO-31 renal
